Measured values taken from patent US11203633B2, “Polynucleotides encoding antibodies or antigen binding fragments thereof that bind pseudomonas perv” (priority 2011, dated 2021).

What was measured:
[1] = test system: luminescent P. aeruginosa serogroup 011 strain (9882-80.lux); assay: OPK assay, 9882-80.lux; assay type: cell-based, Pseudomonas aeruginosa; settings: strain 9882-80 (O11); FIG. 2B
Procedure: (§1) This example describes the evaluation of prioritized human IgG1 antibodies to promote OPK of P. aeruginosa. […] OPK assays were performed as described in (DiGiandomenico, A., et al., Infect Immun 72, 7012-7021 (2004)), with modifications. Briefly, assays were performed in 96-well plates using 0.025 ml of each OPK component; P. aeruginosa strains; diluted baby rabbit serum; differentiated HL-60 cells; and monoclonal antibody. In some OPK assays, luminescent P. aeruginosa strains, which were constructed as described (Choi, K. H., et al., Nat Methods 2, 443-448 (2005)), were used. Luminescent OPK assays were performed as described above but with determination of relative luciferase units (RLUs) using a Perkin Elmer ENVISION Multilabel plate reader (Perkin Elmer).
The ability of the WapR-004 and Cam-003 antibodies to mediate OPK activity against another clinically relevant 0-antigen serotype strain, 9882-80.lux, was evaluated.

[2] = test system: wild type PAO1, PAO1ΔpslA and PAO1ΔpslA complemented with pslA; assay: OPK assay with PAO1 pslA mutant strains; assay type: cell-based, Pseudomonas aeruginosa; settings: FIG. 3F-G
Procedure: as §1
This example describes identification of the target of anti-P. aeruginosa antibodies derived from phenotypic screening. Target analysis was performed to test whether the serotype independent antibodies targeted protein or carbohydrate antigens. […] Isogenic mutants were constructed in genes responsible for 0-antigen, alginate, and LPS core biosynthesis; wbpL (O-antigen-deficient); wbpL/algD (O-antigen and alginate deficient); rmlC (O-antigen-deficient and truncated outer core); and galU (O-antigen-deficient and truncated inner core). […]

[3] = test system: P. aeruginosa strains (PAO1, 33356, 6294, 6077, 6206); assay: Acute pneumonia model in mice, organ burden (CFU in lung, spleen, kidneys); assay type: in vivo, Pseudomonas aeruginosa
Procedure: Antibodies or PBS were administered 24 hours before infection in each model. P. aeruginosa acute pneumonia, keratitis, and thermal injury infection models were performed as described (DiGiandomenico, A., et al., Proc Natl Acad Sci USA 104, 4624-4629 (2007)), with modifications. In the acute pneumonia model, BALB/c mice (The Jackson Laboratory) were infected with P. aeruginosa strains suspended in a 0.05 ml inoculum. In the thermal injury model, CF-1 mice (Charles River) received a 10% total body surface area burn with a metal brand heated to 92° C. for 10 seconds. Animals were infected subcutaneously with P. aeruginosa strain 6077 at the indicated dose. For organ burden experiments, acute pneumonia was induced in mice followed by harvesting of lungs, spleens, and kidneys 24 hours post-infection for determination of CFU.
Organ burden of Pseudomonas-infected mice was also studied in response to administration of V2L2. FIG. 14 (A) Mice were treated with either 1 mg/kg R347 (control), or 1 mg/kg, 0.2 mg/kg, or 0.07 mg/kg of V2L2 and then were infected intranasally with 1.2×10^6 cfu of Pseudomonas 6206. FIG. 14 (B) Mice were also treated with either 15 mg/kg R347 (negative control); 15.0 mg/kg, 5.0 mg/kg, or 1.0 mg/kg mAb166 (positive control); or 5.0 mg/kg, 1.0 mg/kg, or 0.2 mg/kg V2L2 and then were infected intranasally with 5.5×10^6 cfu of Pseudomonas 6206.
The in vivo effect of combination administration of anti-Psl and anti-PcrV binding domains was further studied in mice using the antibodies V2L2 and WapR-004 (RAD). Groups of mice were treated with R347 (2.1 mg/kg—negative control), V2L2 (0.1 mg/kg), W4-RAD (0.5 mg/kg), or V2L2/W4 combination (either 0.1, 0.5, 1.0 or 2.0 mg/kg each). Twenty-four hours post-administration of antibody, all mice were infected with an inoculum containing 5.25×10^5 cfu 6206 (O11-ExoU+). Twenty-four hours post infection, lungs, spleens, and kidneys were harvested, homogenized, and plated for colony forming unit (CFU) identification per gram of tissue.

[4] = test system: P. aeruginosa strain 6077 (O11-cytotoxic); assay: Corneal infection (ocular keratitis) model in mice; assay type: in vivo, Pseudomonas aeruginosa

Substance: Cam-003: anti-Psl human IgG1 monoclonal antibody; VH SEQ ID NO:1, VL SEQ ID NO:2
- OPK activity [1]: OPK activity extends to strain 9882-80 (O11)
- opsonophagocytic killing of Psl-producing vs Psl-deficient strains [2]: only mediates killing of strains capable of producing Psl
- viable CFU vs. R347, Mann-Whitney U-test P ([3]; 6077 1×10^6 CFU, lung, 45 mg/kg, FIG. 7D): 0.0005
- viable CFU vs. R347, Mann-Whitney U-test P ([3]; 6077, kidneys, 5 mg/kg, FIG. 7D): 0.0021
- viable CFU vs. R347, Mann-Whitney U-test P ([3]; 6077, kidneys, 15 mg/kg, FIG. 7D): 0.0355
- viable CFU vs. R347, Mann-Whitney U-test P ([3]; 6077, kidneys, 45 mg/kg, FIG. 7D): 0.0191
- viable CFU vs. R347, Mann-Whitney U-test P ([3]; 6077, lung, 5 mg/kg, FIG. 7D): 0.0007
- viable CFU vs. R347, Mann-Whitney U-test P ([3]; 6077, lung, 15 mg/kg, FIG. 7D): 0.0003
- viable CFU vs. R347, Mann-Whitney U-test P ([3]; 6077, spleen, 5 mg/kg, FIG. 7D): 0.0089
- viable CFU vs. R347, Mann-Whitney U-test P ([3]; 6077, spleen, 15 mg/kg, FIG. 7D): 0.0089
- viable CFU vs. R347, Mann-Whitney U-test P ([3]; 6077, spleen, 45 mg/kg, FIG. 7D): 0.0015
- viable CFU vs. R347, Mann-Whitney U-test P ([3]; 6294 6.25×10^6 CFU, lung, 5 mg/kg, FIG. 7C): 0.0068
- viable CFU vs. R347, Mann-Whitney U-test P ([3]; 6294 6.25×10^6 CFU, lung, 15 mg/kg, FIG. 7C): 0.0039
- viable CFU vs. R347, Mann-Whitney U-test P ([3]; 6294 6.25×10^6 CFU, lung, 45 mg/kg, FIG. 7C): 0.0003
- viable CFU vs. R347, Mann-Whitney U-test P ([3]; 6294 6.25×10^6 CFU, spleen, 5 mg/kg, FIG. 7C): 0.0012
- viable CFU vs. R347, Mann-Whitney U-test P ([3]; 6294 6.25×10^6 CFU, spleen, 15 mg/kg, FIG. 7C): 0.0230
- viable CFU vs. R347, Mann-Whitney U-test P ([3]; 6294 6.25×10^6 CFU, spleen, 45 mg/kg, FIG. 7C): 0.0057
- viable CFU vs. R347, Mann-Whitney U-test P ([3]; 33356 1×10^7 CFU, lung, 45 mg/kg, FIG. 7B): 0.0010
- viable CFU vs. R347, Mann-Whitney U-test P ([3]; 33356, lung, 5 mg/kg, FIG. 7B): 0.0045
- viable CFU vs. R347, Mann-Whitney U-test P ([3]; PAO1 1.1×10^7 CFU, lung, 45 mg/kg, FIG. 7A): 0.0015
- viable CFU vs. R347, Mann-Whitney U-test P ([3]; PAO1, kidneys, 15 mg/kg, FIG. 7A): 0.0056
- viable CFU vs. R347, Mann-Whitney U-test P ([3]; PAO1, kidneys, 45 mg/kg, FIG. 7A): 0.0092
- viable CFU vs. R347, Mann-Whitney U-test P ([3]; PAO1, lung, 5 mg/kg, FIG. 7A): 0.0015
- viable CFU vs. R347, Mann-Whitney U-test P ([3]; PAO1, lung, 15 mg/kg, FIG. 7A): 0.0021
- viable CFU vs. R347, Mann-Whitney U-test P ([3]; PAO1, spleen, 15 mg/kg, FIG. 7A): 0.0367
- viable CFU vs. R347, Mann-Whitney U-test P ([3]; PAO1, spleen, 45 mg/kg, FIG. 7A): 0.0120
- organ burden, dose dependence ([3]; cytotoxic strain 6077, FIG. 7D): the low dose was as effective as the higher dose
- dissemination to the spleen and kidneys ([3]; mice infected with PAO1, 6294 and 6077, FIG. 7A, C, D): marked effect in reducing dissemination to the spleen and kidneys
- lung burden ([3]; strains PAO1, 33356, 6294, 6077, FIG. 7A-D): effective at reducing P. aeruginosa lung burden against all four strains tested
- difference vs control IgG1 (pathology scores / viable CFU), Mann-Whitney U-test P ([4]; 15 mg/kg, FIG. 8C): 0.0003
- difference vs control IgG1 (pathology scores / viable CFU), Mann-Whitney U-test P ([4]; 15 mg/kg, FIG. 8D): 0.0015
- difference vs control IgG1 (pathology scores / viable CFU), Mann-Whitney U-test P ([4]; 45 mg/kg, FIG. 8A): 0.0001
- corneal pathology and bacterial counts vs negative control-treated animals ([4]; 6077, antibody 24 hours prior to infection, FIG. 8A-D, F-G): significantly less pathology and reduced bacterial counts in total eye homogenates
